Where “and” joins values, the source holds several entries; their conditions need not be identical. Equal values may be shown once.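 Briefly, cells in 96-well plates were exposed to five compound concentrations for 48 h, and endpoints were estimated by linear interpolation. GI50 is the concentration that inhibits growth by half. TGI: total growth inhibition.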
Experiments:
Assay in all cases: inhibition of tumour cell growth, NCI panel, 48 h
CAKI-1 renal = test system: CAKI-1 renal
HCT-116 colon = test system: HCT-116 colon
HL-60(TB) leukemia = test system: HL-60(TB) leukemia
KM12 colon = test system: KM12 colon
OVCAR-8 ovarian = test system: OVCAR-8 ovarian
RPMI-8226 leukemia = test system: RPMI-8226 leukemia
SNB-19 CNS = test system: SNB-19 CNS
SNB-75 CNS = test system: SNB-75 CNS
SW-620 colon = test system: SW-620 colon
UACC-62 melanoma = test system: UACC-62 melanoma

Row | Compound | GI50 (CAKI-1 renal) [µM] | TGI (CAKI-1 renal) | GI50 (HCT-116 colon) | TGI (HCT-116 colon) | GI50 (HL-60(TB) leukemia) | TGI (HL-60(TB) leukemia) | GI50 (KM12 colon) [µM] | TGI (KM12 colon) | GI50 (OVCAR-8 ovarian) [µM] | TGI (OVCAR-8 ovarian) | GI50 (RPMI-8226 leukemia) | TGI (RPMI-8226 leukemia) | GI50 (SNB-19 CNS) [µM] | TGI (SNB-19 CNS) [µM] | TGI (SNB-75 CNS) | GI50 (SW-620 colon) | TGI (SW-620 colon) | GI50 (UACC-62 melanoma) [µM] | TGI (UACC-62 melanoma) | GI50 (SNB-75 CNS) [µM]
1 | COc1ccc2c(c1)O/C(=C\c1cccc(OCC(=O)Nc3nc4ccccc4s3)c1)C2=O | 3.04 | > 100 µM | 24.1 µM | > 100 µM | 4.68 µM | > 63 µM | 9.61 | > 100 µM | 12.6 | > 100 µM | 4.87 µM | > 100 µM | > 57.8 | > 100 | > 24 µM | 38.4 µM | > 100 µM | 23.5 | > 100 µM | 
2 | O=C(c1ccccc1)c1ccc(-c2ccc(O)cc2)cc1 | 2.35 | 9.84 µM | 8.42 µM | 44.7 µM | 1.89 µM | 11.1 µM | 2.85 | 22.3 µM | 12.4 | 68.9 µM | 2.7 µM | 18.3 µM | 6.01 | > 100 | 34.5 µM | 5.23 µM | > 100 µM | 0.687 | 33.7 µM | 4.22
3 | COC1/C=C/O[C@@]2(C)Oc3c(C)c(O)c4c(O)c(cc(O)c4c3C2=O)NC(=O)/C(C)=C\C=C\[C@H](C)C(O)[C@@H](C)[C@@H](O)[C@@H](C)[C@H](OC(C)=O)[C@@H]1C (some centres undefined) | 16.9 | 30.8 µM and 98.6 µM | 12.2 µM and 12.5 µM | 25.4 µM and 26.1 µM | 6.07 µM and 5.19 µM | 27.4 µM and 18 µM | 19 | 35.4 µM and 97.2 µM | 14.9 | 29.8 µM and 57.4 µM | 2.14 µM and 7.37 µM | 17.2 µM and 47.4 µM | 51.8 | 220 | 32.3 µM and 119 µM | 2.72 µM and 7.91 µM | 13.6 µM and 21.9 µM | 14.8 | 28 µM and 42.2 µM | 18.1
4 | CCC(=O)Sc1ccccc1C(=O)Nc1ccc(Cl)cc1 | 10.2 | 38.4 µM | 3.58 µM | 13.1 µM | 3.65 µM | 19.8 µM | 6.69 | 36.8 µM | 17.4 | > 100 µM | 4.32 µM | 29.3 µM | 16.6 | 68.8 | 98.2 µM | 3.63 µM | 25.8 µM | 4.38 | 24.3 µM | 19.2
5 | C=CC1CC12C(=O)C1OC2(C)C2C(=O)c3ccccc3C(=O)C12 (centres undefined) | 21.7 | 58.6 µM | > 100 µM | > 100 µM | 0.691 µM | 2.59 µM | > 45.3 | > 80.8 µM | > 42.8 | > 85.8 µM | 28.2 µM | 99.2 µM | > 47.7 | > 84.7 | > 76.1 µM | 45.3 µM | > 100 µM | 35.1 | > 100 µM | > 37.4
6 | O=C(O)CSc1n[nH]c(/C=C/c2ccccc2)n1 |  | > 100 µM |  | > 100 µM |  | > 100 µM |  | > 100 µM |  | > 100 µM |  | > 100 µM |  | > 100 | > 100 µM |  | > 100 µM |  | > 100 µM | 
7 | Cc1ccc(NS(=O)(=O)c2ccc(-c3cnc(C4CC4)o3)cc2)cc1 | 2.77 | 15.4 µM | 2.49 µM | 15.2 µM | 2.47 µM | 9.71 µM | 2.53 | 15.9 µM | 5.24 | 24.3 µM | 2.82 µM | 12.6 µM | 3.88 | 16.6 | 4.25 µM | 2.25 µM | 13.2 µM | 3.06 | 14.9 µM | 1.13
8 | COC1=CC(c2ccc[nH]2)=N/C1=C\c1[nH]c(C)c(C(=O)CCC(=O)Oc2ccc3c(c2)CCC2C3CC[C@]3(C)C(=O)CC[C@@H]23)c1C (some centres undefined) | 8.77 | > 100 µM | 0.773 µM | > 100 µM | 50.2 µM | > 100 µM | 5.6 | > 100 µM | 8.37 | > 100 µM | 5.85 µM | > 100 µM | 17.7 | > 100 | > 96.6 µM | 0.773 µM | > 37.9 µM | 3.71 | 17.9 µM | > 42.7
9 | CO/N=C(\c1ccccc1)c1cnn(-c2ccccc2)c1N | > 25 | > 25 µM | > 25 µM | > 25 µM | > 25 µM | > 25 µM | > 25 | > 25 µM | > 25 | > 25 µM | > 25 µM | > 25 µM | > 25 | > 25 | > 25 µM | > 25 µM | > 25 µM | > 25 | > 25 µM | > 25
10 | O=C1C(=O)c2ccc(Br)cc2-c2cc(Br)ccc21 | 2.09 | 9.92 µM | 0.587 µM | 1.43 µM | 0.607 µM | 1.71 µM | 9.65 | > 100 µM | 0.852 | 2.57 µM | 1.63 µM | 6.82 µM | 11 | > 100 | > 100 µM | 0.84 µM | 2.91 µM | 15.2 | > 64.9 µM | > 54.6
11 | Cc1c(/C=C2\CC/C(=C\c3[nH]c(C(=O)OC(C)(C)C)c(C)c3C)C2=O)[nH]c(C(=O)OC(C)(C)C)c1C |  | > 100 µM |  | > 100 µM |  | > 100 µM |  | > 100 µM |  | > 100 µM |  | > 100 µM |  | > 100 | > 100 µM |  | > 100 µM |  | > 100 µM | 

From PubChem BioAssay (NCI)
